According to PubChem BioAssay (NCI):
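GI50 = concentration required for 50% inhibition of growth. TGI denotes the concentration required for complete inhibition of growth.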

Tests used:
Experiment in all cases: DTP human tumour cell line panel, 384-well format
[1] = tested on: HL-60(TB) leukemia
[2] = tested on: 786-0 renal
[3] = tested on: HCT-15 colon
[4] = tested on: SF-295 CNS
[5] = tested on: DU-145 prostate
[6] = tested on: UACC-257 melanoma
[7] = tested on: SNB-75 CNS
[8] = tested on: SNB-19 CNS
[9] = tested on: U251 glioblastoma
[10] = tested on: KM12 colon
[11] = tested on: MDA-MB-435 melanoma
[12] = tested on: A498 renal
[13] = tested on: HT29 colon
[14] = tested on: NCI-H522 lung
[15] = tested on: MDA-MB-231 breast
[16] = tested on: OVCAR-5 ovarian
[17] = tested on: ACHN renal
[18] = tested on: EKVX NSCLC
[19] = tested on: MDA-MB-468 breast
[20] = tested on: SK-OV-3 ovarian
[21] = tested on: K-562 leukemia
[22] = tested on: NCI/ADR-RES ovarian
[23] = tested on: T-47D breast
[24] = tested on: NCI-H322M lung
[25] = tested on: HOP-62 NSCLC
[26] = tested on: OVCAR-3 ovarian
[27] = tested on: MALME-3M melanoma
[28] = tested on: LOX IMVI melanoma
[29] = tested on: NCI-H226 lung
[30] = tested on: HCT-116 colon
[31] = tested on: NCI-H460 NSCLC
[32] = tested on: SW-620 colon
[33] = tested on: COLO 205 colon
[34] = tested on: OVCAR-8 ovarian
[35] = tested on: SF-539 CNS
[36] = tested on: UACC-62 melanoma
[37] = tested on: A549 NSCLC
[38] = tested on: IGROV1 ovarian
[39] = tested on: MOLT-4 leukemia
[40] = tested on: CAKI-1 renal
[41] = tested on: SK-MEL-5 melanoma
[42] = tested on: OVCAR-4 ovarian
[43] = tested on: MCF7 breast
[44] = tested on: TK-10 renal
[45] = tested on: SF-268 CNS
[46] = tested on: HCC-2998 colon
[47] = tested on: M14 melanoma
[48] = tested on: RXF 393 renal
[49] = tested on: CCRF-CEM leukemia
[50] = tested on: SK-MEL-28 melanoma
[51] = tested on: RPMI-8226 leukemia
[52] = tested on: SN12C renal
[53] = tested on: UO-31 renal
[54] = tested on: BT-549 breast
[55] = tested on: HOP-92 NSCLC
[56] = tested on: NCI-H23 lung
[57] = tested on: PC-3 prostate
[58] = tested on: HS 578T breast

CNC(=O)c1cc2c(Oc3ccc(NC(=S)NC(=O)Cc4ccccc4)cc3F)ccnc2cc1OC
GI50 [1]: 29.2 µM | TGI [1]: > 100 µM | GI50 [2]: 8.3 µM | TGI [2]: 99.7 µM | GI50 [3]: 8.36 µM | TGI [3]: > 100 µM | GI50 [4]: 2.25 µM | TGI [4]: 37.2 µM | GI50 [5]: 34.8 µM | TGI [5]: > 100 µM | GI50 [6]: 18.9 µM | TGI [6]: > 100 µM | GI50 [7]: 1.9 µM | TGI [7]: 6.95 µM | GI50 [8]: 49 µM | TGI [8]: > 100 µM | GI50 [9]: 18.8 µM | TGI [9]: > 100 µM | GI50 [10]: 3.4 µM | TGI [10]: > 100 µM | GI50 [11]: 31.1 µM | TGI [11]: > 100 µM | GI50 [12]: 8.59 µM | TGI [12]: 81.7 µM | GI50 [13]: 5.67 µM | TGI [13]: > 100 µM | GI50 [14]: 5.3 µM | TGI [14]: 27.1 µM | GI50 [15]: 7.39 µM | TGI [15]: 83.2 µM | GI50 [16]: 19.9 µM | TGI [16]: 93.3 µM | GI50 [17]: 5.11 µM | TGI [17]: 54.5 µM | GI50 [18]: 28.9 µM | TGI [18]: > 100 µM | GI50 [19]: 5.2 µM | TGI [19]: 25.2 µM | GI50 [20]: 9.39 µM | TGI [20]: 36.2 µM | GI50 [21]: 0.486 µM | TGI [21]: 1.7 µM | GI50 [22]: 18.8 µM | TGI [22]: > 100 µM | GI50 [23]: 5.05 µM | TGI [23]: 26 µM | GI50 [24]: 31.9 µM | TGI [24]: > 100 µM | GI50 [25]: 17.9 µM | TGI [25]: > 100 µM | GI50 [26]: 17.7 µM | TGI [26]: > 100 µM | GI50 [27]: 15.9 µM | TGI [27]: > 100 µM | GI50 [28]: 8.61 µM | TGI [28]: > 100 µM | GI50 [29]: 4.01 µM | TGI [29]: 45.7 µM | GI50 [30]: 21 µM | TGI [30]: > 100 µM | GI50 [31]: 20.1 µM | TGI [31]: > 100 µM | GI50 [32]: 47.2 µM | TGI [32]: > 100 µM | GI50 [33]: 12.1 µM | TGI [33]: > 100 µM | GI50 [34]: 36.2 µM | TGI [34]: > 100 µM | GI50 [35]: 5.2 µM | TGI [35]: 27.8 µM | GI50 [36]: 5.44 µM | TGI [36]: 95.4 µM | GI50 [37]: 12.3 µM | TGI [37]: > 100 µM | GI50 [38]: 3.03 µM | TGI [38]: 17 µM | GI50 [39]: 2.2 µM | TGI [39]: 10.6 µM | GI50 [40]: 4.55 µM | TGI [40]: 17.5 µM | GI50 [41]: 8.55 µM | TGI [41]: 33.1 µM | GI50 [42]: 27.4 µM | TGI [42]: > 100 µM | GI50 [43]: 14.5 µM | TGI [43]: > 100 µM | GI50 [44]: 24.3 µM | TGI [44]: > 100 µM | GI50 [45]: 2.5 µM | TGI [45]: 6.66 µM | GI50 [46]: > 100 µM | TGI [46]: > 100 µM | GI50 [47]: 8.36 µM | TGI [47]: > 100 µM | GI50 [48]: 2.47 µM | TGI [48]: 6.88 µM | GI50 [49]: 5.36 µM | TGI [49]: 28.8 µM | GI50 [50]: 29.4 µM | TGI [50]: > 100 µM | GI50 [51]: 14.7 µM | TGI [51]: > 100 µM | GI50 [52]: 2.37 µM | TGI [52]: 19.5 µM | GI50 [53]: 23 µM | TGI [53]: > 100 µM | GI50 [54]: 3.42 µM | TGI [54]: 9.66 µM | GI50 [55]: 1.5 µM | TGI [55]: 7.58 µM | GI50 [56]: 1.95 µM | TGI [56]: 23.7 µM | GI50 [57]: 10.9 µM | TGI [57]: > 100 µM | GI50 [58]: 2.49 µM | TGI [58]: 7.12 µM
